Results as given in PMC6895180 (Nature Communications, 2019).
Where “and” joins values, the source holds several entries; their conditions need not be identical. Identical values can stand only once. Like-named read-outs stand apart in the source and are kept apart here.

Assays:
[1] = target: Lister 427WT T. b. brucei; assay: Adenosine deaminase susceptibility (drug sensitivity with/without 2 µM deoxycoformycin); assay type: cell-based, Trypanosoma brucei brucei; settings: for EC50: Trypanosoma brucei, Lister 427WT, mean ± SEM, n=3
T. b. brucei BS221 = assay: Susceptibility assay, BS221 cells; assay type: cell-based, Trypanosoma brucei brucei; settings: for IC50: single determinations
Experimental: (§1) Susceptibility assays with NY-SM[51], BS221[48] and TbAT1-KO[48] (derived from BS221) cells were performed using 10 concentrations of a 4-fold compound dilution series starting at 64 µM. Parasites were seeded at 4 × 10^3 parasites per well and exposed to drug compound for 72 h, after which resazurin (final concentration of 10 µg mL^−1) was added to the plates. Fluorescence intensities were determined after 6 h.

T. b. brucei Squib 427 = assay: Mouse model of acute HAT
Experimental: Drinking water and food were available ad libitum throughout the experiment. […] The reference drug suramin was formulated in phospahte-buffered saline (PBS) at 2.5 mg mL^−1 and administered s.i.d. i.p. for 5 days at 10 mg kg^−1 (n = 3). All treatments were initiated 30 min prior to the i.p. infection. […] Parasitaemia was determined by microscopic evaluation of tail vein blood samples at 4, 7, 10, 14 and 21 dpi (pre-set endpoint). As a test of cure, blood samples (250 µL) were collected from treated mice at 21 dpi and were sub-inoculated i.p. in naive Swiss mice (n = 3), followed by monitoring of parasitaemia as follow-up.

[2] = test system: RNAi clones targeting FLA1BP, EndoG, RHS5, BCKDHA in T. brucei NY-SM cells; assay: Susceptibility of RNAi clones targeting FLA1BP, EndoG, RHS5, BCKDHA; assay type: cell-based, Trypanosoma brucei brucei
Experimental: as §1
The RNAi library[54] was induced for 68 h by the addition of 1 µg mL^−1 of tetracycline. After induction, the cells were exposed to different concentrations of 9 (corresponding to the IC98, IC99). Cells were maintained until a recovery of the resistant population was observed. Genomic DNA of the resistant parasite population was isolated, and the RNAi inserts were identified by PCR amplification, followed by cloning in highly competent Escherichia coli and sequencing. To validate the involvement of the identified genes, the RNAi inserts were back-cloned into a p2T7Bern vector[54] and transformed into NY-SM cells (the background strain of the RNAi library). The transformed NY-SM cells were cloned by limiting dilution. Two clones of each RNAi insert were exposed to tetracycline to induce the RNAi phenotype and subsequently subjected to different concentrations of 9 to determine the susceptibility of induced versus non-induced clones.
Drug susceptibility assays with induced clones were performed as described above for NY-SM cells, with an initial induction period of 68 h with 1 µg mL^−1 tetracycline prior to the start of the drug susceptibility assay.
Supplementary Figure 6: Drug sensitivity of RNAi clones
Supplementary Figure 6: Drug susceptibility of RNAi clones targeting (A) FLA1BP (FLA1 binding protein), (B) EndoG (Endonuclease G), (C) RHS5 (Retrotransposon Hotspotprotein 5), (D) BCKDHA (branched chain keto acid dehydrogenase, i.e. 2-oxoisovalerate dehydrogenase). Results are expressed as the mean IC50 (µM) ± SEM and are based on two independent experiments with two biological replicates. + = tetracycline-induced clones. - = non-induced clones. All experiments were performed with two independent RNAi clones (A and B). Source data are provided as a Source Data file. […]

[3] = absence of deoxycoformycin, read-out: T. b. brucei EC50, -Dcf
[4] = presence of 2 µM deoxycoformycin, read-out: T. b. brucei EC50, +Dcf

## Nc1ncnc2c1ccn2[C@@H]1O[C@H](CO)C[C@H]1O [Compound 9, 3’-deoxytubercidin]
[1]
  effect of adenosine deaminase inhibition (2’-deoxycoformycin) on EC50: not significantly affected
[1]; [3]
  EC50: 37 ± 3 nM
[1]; [4]
  EC50: 49 ± 9 nM
T. b. brucei BS221; BS221, 0.015625 µM
  Inhibition (%): 98% and 95%
T. b. brucei BS221; BS221, 0.25 µM
  Inhibition (%): 98%
T. b. brucei BS221; BS221, 1 µM
  Inhibition (%): 98%
T. b. brucei BS221; BS221, 4 µM
  Inhibition (%): 98%
T. b. brucei BS221; BS221, 16 µM
  Inhibition (%): 98%
T. b. brucei BS221; Trypanosoma brucei, BS221, 0.000244141 µM
  inhibition at 0.000244141 µM: 0%
T. b. brucei BS221; Trypanosoma brucei, BS221, 0.000976563 µM
  inhibition at 0.000976563 µM: 0%
T. b. brucei BS221; Trypanosoma brucei, BS221, 0.015625 µM
  inhibition at 0.015625 µM: 97%
T. b. brucei BS221; Trypanosoma brucei, BS221, 0.0625 µM
  inhibition at 0.0625 µM: 99%
T. b. brucei BS221; Trypanosoma brucei, BS221, 0.25 µM
  inhibition at 0.25 µM: 99%
T. b. brucei BS221; Trypanosoma brucei, BS221, 1 µM
  inhibition at 1 µM: 99%
T. b. brucei BS221; Trypanosoma brucei, BS221, 4 µM
  inhibition at 4 µM: 100%
T. b. brucei BS221; Trypanosoma brucei, BS221, 16 µM
  inhibition at 16 µM: 99%
T. b. brucei BS221; Trypanosoma brucei, BS221, 64 µM
  inhibition at 64 µM: 99%
T. b. brucei BS221; Trypanosoma brucei
  IC50: 6.8 nM
T. b. brucei BS221; Trypanosoma brucei, BS221, mean and SEM, n = 2, read-out: EC50, parental line of AT1-KO
  EC50: 6.4 ± 0.4 nM
T. b. brucei BS221
  IC50: 6.1 nM and 5.4 nM and 7.3 nM
T. b. brucei Squib 427; 6.25 mg/kg bid PO, 4 dpi
  parasitaemia, individual mice: 0
T. b. brucei Squib 427; 6.25 mg/kg bid PO, 7 dpi
  parasitaemia, individual mice: 0
T. b. brucei Squib 427; 6.25 mg/kg bid PO, 10 dpi
  parasitaemia, individual mice: 0
T. b. brucei Squib 427; 6.25 mg/kg bid PO, 14 dpi
  parasitaemia, individual mice: 0
T. b. brucei Squib 427; 6.25 mg/kg bid PO, 21 dpi
  parasitaemia, individual mice: 0
T. b. brucei Squib 427; 12.5 mg/kg bid PO, 4 dpi
  parasitaemia, individual mice: 0
T. b. brucei Squib 427; 12.5 mg/kg bid PO, 7 dpi
  parasitaemia, individual mice: 0
T. b. brucei Squib 427; 12.5 mg/kg bid PO, 10 dpi
  parasitaemia, individual mice: 0
T. b. brucei Squib 427; 12.5 mg/kg bid PO, 14 dpi
  parasitaemia, individual mice: 0
T. b. brucei Squib 427; 12.5 mg/kg bid PO, 21 dpi
  parasitaemia, individual mice: 0
T. b. brucei Squib 427; 25 mg/kg bid PO, 4 dpi
  parasitaemia, individual mice: 0
T. b. brucei Squib 427; 25 mg/kg bid PO, 7 dpi
  parasitaemia, individual mice: 0
T. b. brucei Squib 427; 25 mg/kg bid PO, 10 dpi
  parasitaemia, individual mice: 0
T. b. brucei Squib 427; 25 mg/kg bid PO, 14 dpi
  parasitaemia, individual mice: 0
T. b. brucei Squib 427; 25 mg/kg bid PO, 21 dpi
  parasitaemia, individual mice: 0
T. b. brucei Squib 427; all treatment schedules, no adverse reactions, no weight loss
  tolerability in mice: well tolerated
T. b. brucei Squib 427; follow-up of parasitaemia
  test of cure: blood of surviving animals at 21 dpi inoculated in treatment-naïve mice: absence of parasitaemia
T. b. brucei Squib 427; i.p. 10 mg kg^−1 s.i.d. for 5 days
  blood parasitaemia and survival at 21 dpi: negative blood parasitaemia and survival of all treated mice
T. b. brucei Squib 427; oral 6.25 mg kg^−1 b.i.d. for 5 days
  blood parasitaemia and survival at 21 dpi: negative blood parasitaemia and survival of all treated mice
T. b. brucei Squib 427; oral 12.5 mg kg^−1 b.i.d. for 5 days
  blood parasitaemia and survival at 21 dpi: negative blood parasitaemia and survival of all treated mice
T. b. brucei Squib 427; oral 25 mg kg^−1 b.i.d. for 5 days
  blood parasitaemia and survival at 21 dpi: negative blood parasitaemia and survival of all treated mice
[2]
  susceptibility of tetracycline-induced versus non-induced clones, remaining four constructs: no significant differences
[2]; BCKDHA RNAi clone A +
  IC50: 7.45 nM
[2]; BCKDHA RNAi clone A -
  IC50: 7.58 nM and 7.81 nM
[2]; BCKDHA RNAi clone B -
  IC50: 7.47 nM
[2]; EndoG RNAi clone A +
  IC50: 7.75 nM
[2]; EndoG RNAi clone A -
  IC50: 8.23 nM and 7.93 nM and 7.81 nM
[2]; EndoG RNAi clone B +
  IC50: 7.63 nM and 7.94 nM and 8.26 nM
[2]; EndoG RNAi clone B -
  IC50: 7.81 nM
[2]; FLA1BP RNAi clone A -
  IC50: 6.66 nM
[2]; FLA1BP RNAi clone B +
  IC50: 7.81 nM and 7.59 nM
[2]; FLA1BP RNAi clone B -
  IC50: 7.64 nM and 7.01 nM
[2]; RHS5 RNAi clone A +
  IC50: 8.05 nM and 7.59 nM
[2]; RHS5 RNAi clone A -
  IC50: 7.93 nM
[2]; RHS5 RNAi clone B +
  IC50: 8.37 nM and 7.06 nM
[2]; Trypanosoma brucei, BCKDHA RNAi clone A +
  IC50: 7.99 nM
[2]; Trypanosoma brucei, BCKDHA RNAi clone A -
  IC50: 7.98 nM
[2]; Trypanosoma brucei, BCKDHA RNAi clone B +
  IC50: 8.39 nM
[2]; Trypanosoma brucei, BCKDHA RNAi clone B -
  IC50: 7.41 nM
[2]; Trypanosoma brucei, EndoG RNAi clone A +
  IC50: 8.04 nM
[2]; Trypanosoma brucei, EndoG RNAi clone A -
  IC50: 8.17 nM
[2]; Trypanosoma brucei, EndoG RNAi clone B +
  IC50: 8.04 nM
[2]; Trypanosoma brucei, EndoG RNAi clone B -
  IC50: 7.92 nM
[2]; Trypanosoma brucei, FLA1BP RNAi clone A +
  IC50: 8.1 nM
[2]; Trypanosoma brucei, FLA1BP RNAi clone A -
  IC50: 7.7 nM
[2]; Trypanosoma brucei, FLA1BP RNAi clone B +
  IC50: 8.04 nM
[2]; Trypanosoma brucei, FLA1BP RNAi clone B -
  IC50: 7.46 nM
[2]; Trypanosoma brucei, RHS5 RNAi clone A +
  IC50: 8.1 nM
[2]; Trypanosoma brucei, RHS5 RNAi clone A -
  IC50: 7.87 nM
[2]; Trypanosoma brucei, RHS5 RNAi clone B +
  IC50: 8.3 nM
[2]; Trypanosoma brucei, RHS5 RNAi clone B -
  IC50: 7.76 nM

## Nc1ncnc2c1c(Br)cn2[C@@H]1O[C@H](CO)C[C@H]1O [Compound 10, 3’-deoxy-7-Br-tubercidin]
[1]
  effect of adenosine deaminase inhibition (2’-deoxycoformycin) on EC50: not significantly affected
[1]; [3]
  EC50: 2 ± 0.1 nM
[1]; [4]
  EC50: 1.9 ± 0.2 nM
T. b. brucei Squib 427; 6.25 mg kg^−1 orally
  tolerability in mice: not well tolerated
